Results taken from US20130090371A1, “METHODS AND COMPOSITIONS FOR INHIBITION OF BETA2-ADRENERGIC RECEPTOR DEGRADATION” (PRESIDENT AND FELLOWS OF HARVARD COLLEGE, priority 2010, published 2013).
d = 2'-deoxy (DNA)

How the values were obtained:
cell surface β2AR [1] = test: Flowcytometry of cell surface β2AR in 293.β2AR* (recycle-deficient FLAG-β2AR, β2ARt) cells; format: cell-based, human
Description: (§1) Cell Culture, Transfection and Drug Treatments. […] Transfection of DNA into 293T cells was using FuGene 6 reagent (Roche) according to manufacturer's instruction. […] FDPS-specific siRNA (sense [NT], antisense [NT]) was from Sigma-Aldrich and the non-targeting Scrambled siRNA was from Thermo Scientific. […] Cells were washed with PBS and incubated with diluted TrypLE Express Enzyme (Invitrogen) (1:10 dilutio in PBS) for exactly 1 min at room temperature followed by adding regular medium immediately. […] Then cells were washed again and passed through cell strainers to remove cell clumps before being sorted on a FACS Aria multicolor high speed sorter (Becton Dickinson). During FACS analysis, the population of single cell was gated to measured FITC (green) signal. Background of auto-fluorescence was identified by plotting FITC with PE (red) or SSC (side scatter) signal. FITC-positive cells were collected in calcium and magnesium-free PBS with 20% FBS. Collected cells were cultured for repeating FACS sorting. […] The population of PI-negative single cell was gated to measured FITC signal.

cell surface β2AR [2] = test: Flowcytometry of cell surface β2AR in 293.β2AR^WT cells; format: cell-based, human
Description: as §1

cellular cholesterol = test: Cellular cholesterol measurement in 293.β2AR* cells; format: cell-based, human
Description: Error bars represented the standard deviations of replicates.
Cellular cholesterol measurement. 1×10^6 cells were cultured in each well of 6-well plates in DMEM containing 10% FBS for 3 d until fully confluent. Then drug treatments were performed in either DMEM containing 10% FBS or Opti-MEM without serum in duplicates. Cells were transferred to microcentrifuge tubes, washed twice with ice-cold PBS. Total lipids were extracted by resuspending and lysing cells in 300 μL of Chloroform: Isopropanol: Triton X-100 (7:11:0.1). The organic phase was collected after centrifugation at 12,000 rpm for 10 min and then evaporated at 50° C. for 3-4 h. Lipids were resuspend in 200 μL of Cholesterol Reaction buffer included in a commercial cholesterol measurement kit (Invitrogen) by votexing. Cholesterol was measured by the cholesterol oxidase method according to the manufacturer's directions. 2 or 4 measurements were taken for each replicate sample.

[3] = tested on: human airway smooth muscle cells; test: Optical Magnetic Twisting Cytometry (elastic modulus) of HASM cells; conditions: for decrease of stiffness compared to baseline: 1 mM isoproterenol, measured over 15 min
CaMKK2 = test: qRT-PCR of CaMKK2 mRNA in primary HASM cells; format: cell-based, human; conditions: 50 nM siRNA; three days after transfection
β2ARt = target: T1, β2ARt (Homo sapiens, UniProt P07550); test: Immunoblot of agonist-induced β2AR degradation in 293β2AR* / β2ARt cells; format: cell-based; conditions: after 3 hours of agonist induction (10 μM isoproterenol); vs empty vector
T1 construct: a distally truncated form (after residue 385) of β2AR (β2ARt); expressed in transfected cells; host or cells: HEK293 (293.β2AR*)
Description: β2AR ubiquitination and degradation assays. Cells expressing […] or β2ARt were subjected to 10 μM ISO (Sigma) stimulation, lysed in 0.5% NP-40 lysis buffer and immunoblotted with anti-FLAG-HRP (Sigma). For β2AR ubiquitination, β2ARt or wt-β2AR expressing cells were first incubated with 10 μM alprenolol antagonist (Sigma) for 15 min (to reduce constitutive background ubiquitination), stimulated with 10 μM ISO and lysed in buffer supplemented with 10 mM N-ethylmaleimide (NEM; Sigma) to inhibit deubiquitinase activity. Anti-FLAG EZview beads (Sigma) used for the IP were subjected to three 10 min washes with lysis buffer and resuspended in 50 μl 2βLDS sample buffer (Invitrogen) containing 10% β-mercaptoethanol (Sigma) and analyzed by immunoblotting.

β2AR = test: Immunoblot of β2AR protein in human airway smooth muscle (HASM) cells; conditions: 20 μM isoproterenol for 2 d; vs non targeting shRNA
Description: Error bars represented the standard deviations; Student t-test * p<0.05, n=2. […] Indirect Immunofluorescence staining of β2AR and phase contract images are shown.
Three days after the inhibitor treatment cell lysates were collected and analyzed by immunoblotting. Three repeats were done with similar results.
Immunoblot analysis. 48 h post DNA transfection, cells were wash with PBS and lysed with NP-40 lysing buffer (50 mM Tris-HCl pH7.5, 150 mM NaCl, 0.5% Nonidet P-40) containing protease inhibitor cocktail (Roche). Protein samples were separated on NuPAGE 10% Bis-Tris gels (Invitrogen) and transferred to nitrocellulose membranes (Bio-Rad). Immunoblot signals were developed using SuperSignal West Pico Chemiluminescent Substrate (Pierce, Rockford, Ill., USA) and quantified by a Luminescence Imager or exposed to X-ray films.

FDPS = test: Real-time RT-PCR of FDPS mRNA in 293β2AR* cells; format: cell-based, human; conditions: normalized to β-Actin
Description: FIGS. 4A-4D show FDPS regulates the amount of Cell Surface β2AR in 293βAR* cells. […]. […] Cells were transduced with Lentivirus expressing FDPS-specific shRNA or empty vector, or transfected with FDPS-specific siRNA or non-targeting Scrambled (SCR) siRNA. The RNA levels were determined by real time RT-PCR and normalized to that of β-Actin. Error bars represented the standard deviations of replicates. Statistic analysis was using student's t-test. […]. MFI: Mean fluorescence intensity.
Real-Time RT-PCR. Total RNA was isolated by using TRIzol (Invitrogen) and further cleaned up by using RNeasy Mini kit (Qiagen) with DNase I digestion. cDNA was synthesized by using oligo-dT primers and SuperScript III (Invitrogen). Real-time PCR was performed on ABI Prism 7300 with SYBR Green (Qiagene). The FDPS was amplified with primers FDPS-1F (5′-TGACCGGCAAAATTGGCACTGACAT-3′) (SEQ ID NO: 20) and FDPS-1R (5′-CCTTCACCCGGGCCACTTTCTCA-3′) (SEQ ID NO: 21). […]. The β-Actin control was amplified with primers (Forward, 5′-AAG GCC AAC CGC GAG AAG-3′ (SEQ ID NO: 28) and Reverse, 5′-GGC GTA CAG GGA TAG CAC-3′ (SEQ ID NO: 29)).

[4] = target: T2, NEDD4 E3 ubiquitin ligase (UniProt P46934-4 1-900, limits assumed); test: co-immunoprecipitation and immunoblot (FIG. 8B)
T2 construct: also called ubiquitin ligase NEDD4
T2 sequence (looked up): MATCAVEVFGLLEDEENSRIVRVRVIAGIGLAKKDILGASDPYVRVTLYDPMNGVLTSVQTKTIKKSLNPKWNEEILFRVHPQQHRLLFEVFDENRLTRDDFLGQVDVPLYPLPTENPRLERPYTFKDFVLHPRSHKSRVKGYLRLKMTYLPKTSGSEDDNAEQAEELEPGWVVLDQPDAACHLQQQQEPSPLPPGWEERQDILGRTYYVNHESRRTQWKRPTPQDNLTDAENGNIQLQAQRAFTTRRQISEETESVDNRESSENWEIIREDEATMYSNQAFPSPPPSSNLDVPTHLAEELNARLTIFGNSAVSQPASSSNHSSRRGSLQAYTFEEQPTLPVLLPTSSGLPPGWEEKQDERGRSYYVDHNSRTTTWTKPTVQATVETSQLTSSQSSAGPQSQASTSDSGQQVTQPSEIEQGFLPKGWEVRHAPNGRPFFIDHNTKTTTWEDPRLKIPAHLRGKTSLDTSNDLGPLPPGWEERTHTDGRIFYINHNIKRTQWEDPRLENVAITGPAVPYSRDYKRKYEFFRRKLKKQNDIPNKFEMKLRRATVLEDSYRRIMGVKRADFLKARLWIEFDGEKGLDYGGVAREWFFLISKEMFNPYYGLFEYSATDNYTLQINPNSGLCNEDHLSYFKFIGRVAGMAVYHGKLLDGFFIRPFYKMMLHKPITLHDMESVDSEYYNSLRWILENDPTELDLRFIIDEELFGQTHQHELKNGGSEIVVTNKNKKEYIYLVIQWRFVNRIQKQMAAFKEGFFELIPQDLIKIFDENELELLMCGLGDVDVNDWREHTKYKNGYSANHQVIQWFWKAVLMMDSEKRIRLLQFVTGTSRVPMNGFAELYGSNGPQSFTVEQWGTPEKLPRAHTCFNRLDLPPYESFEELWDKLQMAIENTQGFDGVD

Question: For NCCCC(O)(P(=O)([O-])O)P(=O)(O)O.[Na+] [alendronate, (4-amino-1-hydroxybutylidene)bisphosphonic acid monosodium salt], which “cell surface β2AR levels after agonist induction” value (cell surface β2AR [1]; 50 or 500 μM for 1 d, then 10 μM isoproterenol 3 h) is on record?
Answer: The value was “dose dependent increase of the cell surface β2AR levels”.

Question: And the “surface β2AR levels prior and post agonist induction” value (cell surface β2AR [1]; treatment for 2 days, data not shown)?
Answer: The value was “increase the surface β2AR levels”.

Question: And the “amount of cell surface β2AR” value (cell surface β2AR [2]; 50 μM alendronate alone for 1 d)?
Answer: Its value is “increased the amount of cell surface β2AR”.

Question: What about the “cell surface β2AR levels before and after agonist induction” value (cell surface β2AR [2]; 50 μM for 1 d, then 10 μM isoproterenol 1 h) of the same molecule?
Answer: The value was “increased the cell surface β2AR levels both before and after agonist induction”.

Question: And the “effect on cellular cholesterol” value (cellular cholesterol; 50 μM ALN or 100 μg/mL pravastatin for 1 d, serum containing medium)?
Answer: The value was “neither alendronate nor pravastatin could significantly lower the cellular cholesterol”.

Question: What about the “effect on cellular cholesterol” value (cellular cholesterol; 50 μM for 1 d, serum-free medium) of the same molecule?
Answer: Its value is “not sufficient to lower cellular cholesterol”.

Question: How did the “effect on FDPS blockade of β2AR down-regulation” value (cell surface β2AR [2]; cholesterol supplementation (FIG. 6A)) turn out when CC(C)CCC[C@@H](C)[C@H]1CC[C@H]2[C@@H]3CC=C4C[C@@H](O)CC[C@]4(C)[C@H]3CC[C@]12C [cholesterol] was run?
Answer: The value was “reverses the effects of FDPS blockade”.

Question: How did the “decrease of stiffness compared to baseline” value ([3]; FDPS knockdown (sample) cells) turn out when CC(C)NCC(O)c1ccc(O)c(O)c1 (stereo not shown) [isoproterenol] was run?
Answer: Its value is roughly 15%.

Question: And the “decrease of stiffness compared to baseline” value ([3]; control cells)?
Answer: Its value is roughly 40%.

Question: How did the “effect on amount of cell surface β2AR” value (cell surface β2AR [1]; 100 μg/mL for 1 d) turn out when CC[C@H](C)C(=O)O[C@H]1C[C@H](O)C=C2C=C[C@H](C)[C@H](CC[C@@H](O)C[C@@H](O)CC(=O)O)[C@H]21 [pravastatin] was run?
Answer: The value was “no significant effect”.

Question: And the “effect on amount of cell surface β2AR” value (cell surface β2AR [2]; 100 μg/mL for 1 d)?
Answer: The value was “no significant effect”.

Question: And the cellular cholesterol lowering (cellular cholesterol; 1 μg/mL for 1 d, serum-free medium)?
Answer: Its cellular cholesterol lowering is 19.9%.

Question: Which “cell surface β2AR, mean fluorescence intensity” value (cell surface β2AR [1]; β2ARt-expressing 293 cells, vehicle or ISO 16 h, vs non-targeting shRNA) does the source give for “AA496068 EST shRNA: shRNA TCTGCATTTCCTGTAATTTTGCATGC (SEQ ID NO: 2) targeting EST AA496068 upstream of latrophilin 2” here?
Answer: The value was “An increase in the mean fluorescence intensity values”.

Question: “ARRDC3-specific shRNA: shRNA sequence CCACAGACACCACTCGCTACCTCATT (SEQ ID NO: 24)” was tested. Which “higher level of cell surface receptor after agonist stimulation” value (cell surface β2AR [1]; β2ARt cells, vs non-targeting shRNA) did it give?
Answer: Its value is greater than 20%.

Question: Which “knockdown of CaMKK2 expression” value (CaMKK2) does the source give for “CaMKK2 siRNA #1: 5′ GCUCCUAUGGUGUCGUCAAdTdT (SEQ ID NO: 32), MISSION siRNA from Sigma (GCUCCUAUGGUGUCGUCAATT; further chemistry not given here)” here?
Answer: Its value is “about 90%”.

Question: Which “knockdown of CaMKK2 expression” value (CaMKK2) does the source give for “CaMKK2 siRNA #2: 5′ UUGACGACACCAUAGGAGCdTdT (SEQ ID NO: 33), MISSION siRNA from Sigma (UUGACGACACCAUAGGAGCTT; further chemistry not given here)” here?
Answer: The value was “about 90%”.

Question: Which results are given for “FDPS-specific shRNA: lentiviral shRNA clone, hairpin sequence 5′-AGCGGAGAAAGTGACCTAGAGATTG-3′ (SEQ ID NO: 20) (AGCGGAGAAAGTGACCTAGAGATTG)”?
Answer: amount of β2AR by immunoblot (β2ARt): increased amount of β2AR; baseline elastic modulus (t=0) ([3]; FDPS knockdown cells vs control cells): approximately two times lower; total amount of β2AR (β2AR): upregulation of β2AR; down regulation of FDPS mRNA level (knockdown efficiency) (FDPS): about 10%

Question: “FDPS-specific siRNA: sense 5′-cca ugu aca ugg cag gaa u(dT)(dT)-3′, antisense 5′-auu ccu gcc aug uac aug g(dT)(dT)-3′, from Sigma-Aldrich (sense CCAUGUACAUGGCAGGAAU; antisense AUUCCUGCCAUGUACAUGG; RNA, 3' dTdT, backbone not given here)” was tested. Which “increase in cell surface β2AR” value (cell surface β2AR [1]; both prior and post agonist induction (10 μM isoproterenol 1 or 3 h), vs non-targeting control siRNA) did it give?
Answer: Its value is “about 2 fold”.

Question: What about the “down regulation of FDPS mRNA level (knockdown efficiency)” value (FDPS) of the same molecule?
Answer: Its value is “about 80%”.

Question: Methyl-beta-cyclodextrin [MbCD] was tested. Which “cell surface β2AR post agonist induction” value (cell surface β2AR [1]; 1 or 2 mM for 1 h, then 10 μM isoproterenol 1 h) did it give?
Answer: Its value is “increased amount of cell surface β2AR post agonist induction”.

Question: And the cellular cholesterol lowering (cellular cholesterol; 2 mM for 1 h, medium containing 10% FBS)?
Answer: Its cellular cholesterol lowering is 35.3%.

B1: ARRDC3ΔΔPPXY (double PPXY motif mutant of ARRDC3) (other, human, UniProt Q96B67 1-414, looked up)
chain: MVLGKVKSLTISFDCLNDSNVPVYSSGDTVSGRVNLEVTGEIRVKSLKIHARGHAKVRWTESRNAGSNTAYTQNYTEEVEYFNHKDILIGHERDDDNSEEGFHTIHSGRHEYAFSFELPQTPLATSFEGRHGSVRYWVKAELHRPWLLPVKLKKEFTVFEHIDINTPSLLSPQAGTKEKTLCCWFCTSGPISLSAKIERKGYTPGESIQIFAEIENCSSRMVVPKAAIYQTQAFYAKGKMKEVKQLVANLRGESLSSGKTETWNGKLLKIPPVSPSILDCSIIRVEYSLMVYVDIPGAMDLFLNLPLVIGTIPLHPFGSRTSSVSSQCSMNMNWLSLSLPERPEAAASAAEVVTEEQRRNNLAPVSACDDFERALQGPLFAYIQEFRFLPAALASEIDPNPDQSADDRPSCPSR
notes: also called double PPXY ARRDC3 mutant; double PPXY mutant
Question: Does B1 bind [4]?
Answer: Result: no binding
